This note sets out measurements from patent publication US6656509B1, “Combination of selenium-containing compounds with cytostatics” (Biosyn Arzneimittel GmbH, priority 1998, dated 2003).

Structures are written as SMILES.

Assay [1] concerns pancreatic cancer xenograft PAXF 736. Description: clonogenic assay, single agents and combination studies. Format: cell-based, human. The following applies: (X261, X295). As for the experimental part: (§1) The cell mixture was passed through sieves of 200 μm and 50 μm mesh size and washed thereafter twice with PBS. The percentage of viable cells was determined in a Neubauer counting chamber using trypan blue exclusion.
(§2) 8×10^3 to 1,6×10^4 cells were added to 0.2 ml of the same culture medium together with 0.4% agar and placed in already coated 24-multiwell dishes. Test substances were applied by continuous exposure (drug overlay) in 0.2 ml medium. Every dish included six control wells containing the vehicle- and drug-treated groups in triplicate at six concentrations.
(§3) Cultures were incubated at 37° and 7% CO2 in a humidified atmosphere for 5 to 15 days (depending on the doubling time of the tumor stem cells) and monitored for colony growth using an inverted microscope. Within this period, in vitro tumor growth led to the formation of colonies with a diameter of ≧50 μm. At the time of maximum colony formation counts were performed with an automatic image analysis system (OMNICOM Fas IV, Biosys GmbH). […] Drug effects were expressed in terms of the percentage of surviving cells, obtained by comparison of the mean number of colonies in the treated plates with the mean colony count of the untreated controls (test-versus-control-group value, T/C=colony countTreated Group*100/colony countControl Group).
(§4) Coefficient of variation in the control group ≦50%. IC50 and IC70 values were determined by plotting compound concentration versus cell survival rate. Mean IC50 and IC70 values were calculated according to the formula: [formula]
(§5) with x=specific tumor xenograft and n=total number of tumor xenografts studied. If an IC50 or IC70 value could not be determined within the examined dose range, the lowest or highest concentration studied was used for the calculation.
(§6) Each experiment included the chemotherapeutic agents in 6 concentrations, selenium in 2 concentrations (3 and 30 μM), and the combination of all doses with selenium at 3 and 30 μM. All compounds and combinations were studied in triplicates. […] Each experiment was performed twice.
(§7) T/Cexpectd(A+B)=T/C(A)×T/C(B)/100
(§8) For a zero-interactive drug combination (additivity of drug effects) T/Cexpected(A+B)[…]T/Cobserved(A+B). A drug combination is synergistic if T/Cobserved(A+B) is statistically significant[…]T/Cexpected(A+B). Statistical significance was determined by the T-test.

The subject of assay [2] is pancreatic cancer xenograft PAXF 546. The assay is described as above. Format: cell-based, human. As to conditions: observed; X261, X295. As to the method:
as §1, §2, §3, §4, §5, §6, §7, §8

`CO[C@@]12[C@H](COC(N)=O)C3=C(C(=O)C(C)=C(N)C3=O)N1C[C@@H]1N[C@@H]12` [Mitomycin C]: in assay [1] (mitomycin C alone), the “T/C in % at a mitomycin C concentration (μM) of 1 × 10^−1” value was determined as 11 ± 7%, the “T/C in % at a mitomycin C concentration (μM) of 1 × 10^−2” value came out at 30± 7%, the “T/C in % at a mitomycin C concentration (μM) of 1 × 10^−3” value is recorded as 46 ± 8% and the “T/C in % at a mitomycin C concentration (μM) of 1 × 10^−4” value worked out at 56 ± 11%. Also, in assay [1] (mitomycin C alone), the “T/C in % at a mitomycin C concentration (μM) of 1 × 10^−5” value was determined as 58 ± 10% and the “T/C in % at a mitomycin C concentration (μM) of 1 × 10^−6” value was found to be 77 ± 13%. For the same molecule, in assay [2], the “T/C in % at a mitomycin C concentration (μM)” value is reported as 87 ± 11%, the “T/C in % at a mitomycin C concentration (μM) of 1.0” value worked out at 5 ± 2%, the “T/C in % at a mitomycin C concentration (μM) of 1 × 10^−1” value stood at 57 ± 8% and the “T/C in % at a mitomycin C concentration (μM) of 1 × 10^−2” value was 80± 12%. Further, in assay [2], the “T/C in % at a mitomycin C concentration (μM) of 1 × 10^−3” value was found to be 70 ± 13%, the “T/C in % at a mitomycin C concentration (μM) of 1 × 10^−4” value is 70 ± 10% and the “T/C in % at a mitomycin C concentration (μM) of 1 × 10^−5” value amounted to 84 ± 14%.

In the case of `Nc1ccn([C@@H]2O[C@H](CO)[C@@H](O)C2(F)F)c(=O)n1` [Gemcitabine], in assay [1] (gemcitabine alone), the “T/C in % at a gemcitabine concentration (μM) of 1 × 10^−1” value is given as 30 ± 8%, the “T/C in % at a gemcitabine concentration (μM) of 1 × 10^−2” value was 71± 10%, the “T/C in % at a gemcitabine concentration (μM) of 1 × 10^−3” value is given as 77 ± 13% and the “T/C in % at a gemcitabine concentration (μM) of 1 × 10^−4” value amounted to 84 ± 12%. In assay [1] (gemcitabine alone), the “T/C in % at a gemcitabine concentration (μM) of 1 × 10^−5” value came out at 78 ± 14% and the “T/C in % at a gemcitabine concentration (μM) of 1 × 10^−6” value is listed as 89 ± 11%. Further, in assay [2], the “T/C in % at a gemcitabine concentration (μM)” value is on record as 85 ± 15%, the “T/C in % at a gemcitabine concentration (μM) of 1.0” value turned out to be 30 ± 6%, the “T/C in % at a gemcitabine concentration (μM) of 1 × 10^−1” value is listed as 48 ± 8% and the “T/C in % at a gemcitabine concentration (μM) of 1 × 10^−2” value was 61± 11%. Moreover, in assay [2], the “T/C in % at a gemcitabine concentration (μM) of 1 × 10^−3” value is listed as 83 ± 12%, the “T/C in % at a gemcitabine concentration (μM) of 1 × 10^−4” value is 80 ± 12% and the “T/C in % at a gemcitabine concentration (μM) of 1 × 10^−5” value was 73 ± 20%.
